Experimental data reported in US7358245B2, “Treatment of gastroesophageal reflux disease” (AstraZenca AB, priority 2001, dated 2008).

System: transient lower esophageal sphincter relaxations (TLESRs)
Test: Screening for compounds active against TLESR (motility measurement in dogs)
Assay type: in vivo, Adult Labrador retrievers (dog)
Settings: vs five preceding control experiments for each dog
Procedure: Adult Labrador retrievers of both genders, trained to stand in a Pavlov sling, are used. Mucosa-to-skin esophagostomies are formed and the dogs are allowed to recover completely before any experiments are done.
In brief, after fasting for approximately 17 h with free supply of water, a multilumen sleeve/sidehole assembly (Dentsleeve, Adelaide, South Australia) is introduced through the esophagostomy to measure gastric, lower esophageal sphincter (LES) and esophageal pressures. The assembly is perfused with water using a low-compliance manometric perfusion pump (Dentsleeve, Adelaide, South Australia). An air-perfused tube is passed in the oral direction to measure swallows, and an antimony electrode monitored pH, 3 cm above the LES. All signals are amplified and acquired on a personal computer at 10 Hz.
When a baseline measurement free from fasting gastric/LES phase III motor activity has been obtained, placebo (0.9% NaCl) or test compound is administered intravenously (i.v., 0.5 ml/kg) in a foreleg vein. Ten min after i.v. administration, a nutrient meal (10% peptone, 5% D-glucose, 5% Intralipid, pH 3.0) is infused into the stomach through the central lumen of the assembly at 100 ml/min to a final volume of 30 ml/kg. Immediately following the meal, air is insufflated at 40 ml/min. The experimental time from start of nutrient infusion to end of air insufflation is 45 min. The procedure has been validated as a reliable means of triggering TLESRs.
TLESRs is defined as a decrease in lower esophageal sphincter pressure (with reference to intragastric pressure) at a rate of >1 mmHg/s. The relaxation should not be preceded by a pharyngeal signal ≦2 s before its onset in which case the relaxation is classified as swallow-induced. The pressure difference between the LES and the stomach should be less than 2 mmHg, and the duration of the complete relaxation longer than 1 s.
The aminoalkylindole cannabinoid WIN 55,212-2, purchased from Tocris Cookson (Bristol, U.K.), was tested on Adult Labrador retrievers of both genders in accordance with the test model described above.
Inhibition of the number of TLESRs was calculated with regard to the five preceding control experiments for each dog, and the results as set out in Table 1 below were achieved.

COc1ccc2c(c1)c(CCN1CCOCC1)c(C)n2C(=O)c1cccc(Cl)c1Cl [L-768,242, (2,3-dichloro-phenyl)-[5-methoxy-2-methyl-3-(2-morpholin-4-yl-ethyl)-indol-1-yl]-methanone]
% INHIBITION ± SEM (N) of the number of TLESRs (dose 0.3 μmol/kg i.v.): 8 ± 21 (4) % | % INHIBITION ± SEM (N) of the number of TLESRs (dose 1 μmol/kg i.v.): 44 ± 6 (5) % | % INHIBITION ± SEM (N) of the number of TLESRs (dose 5 μmol/kg i.v.): 63 ± 5 (4) % | % INHIBITION ± SEM (N) of the number of TLESRs (dose 7 μmol/kg i.v.): 76 ± 12 (3) %

Cc1c(C(=O)c2cccc3ccccc23)c2cccc3c2n1[C@H](CN1CCOCC1)CO3 [WIN 55,212-2, (2-methyl-3-morpholin-4-ylmethyl-3,4-dihydro-5-oxa-2a-aza-acenaphthylen-1-yl)-naphthalen-1-yl-methanone]
% INHIBITION ± SEM (N) of the number of TLESRs (dose 0.003 mg/kg i.v.): 20 ± 18 (4) % | % INHIBITION ± SEM (N) of the number of TLESRs (dose 0.01 mg/kg i.v.): 70 ± 10 (4) % | % INHIBITION ± SEM (N) of the number of TLESRs (dose 0.03 mg/kg i.v.): 82 ± 1 (4) %

Cc1c(C(=O)NN2CCCCC2)nn(-c2ccc(Cl)cc2Cl)c1-c1ccc(Cl)cc1 [SR141716A]
% STIMULATION ± SEM (N) of the number of TLESRs (dose 0.22 μmol/kg i.v.): 43 ± 16 (6) %
